Reference: PubChem BioAssay AID1259411 (Chemical Carcinogenesis Research Information System (CCRIS), 2018)
Active and inactive are the calls of the source. No rule for the calls is given here.

Tested on: rodent carcinogenicity bioassays, tumor incidence
Test: CCRIS carcinogenicity studies
Details: Route: ORAL, Dose: 0, Dose: 0
How it was run: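 NCI-built, expert-reviewed records of carcinogenicity and related test outcomes (mutagenicity, tumor promotion/inhibition) compiled from published and report sources, historical span 1985-2011, not updated.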

SMILES: CCCCC(CC)COC(=O)c1ccccc1C(=O)OCC(CC)CCCC (stereo unspecified)
- carcinogen call (Species: MOUSE, Strain/Sex: B6C3F1/FEMALE, 3000, 6000 PPM IN DIET FOR 102-104 WK (STUDY DURATION: 102-104 WK), 3000, 6000 PPM IN DIET FOR 102-104 WK (STUDY DURATION: 102-104 WK), Tumor Site: Type of Lesion: LIVER: CARCINOMA, CARCINOMA OR ADENOMA): active; positive
- carcinogen call (Species: MOUSE, Strain/Sex: B6C3F1/FEMALE, 3000, 6000 PPM IN DIET FOR 103 WK (STUDY DURATION: 105 WK), 3000, 6000 PPM IN DIET FOR 103 WK (STUDY DURATION: 105 WK), Tumor Site: Type of Lesion: LIVER: HEPATOCELLULAR CARCINOMA): active; positive
- carcinogen call (Species: MOUSE, Strain/Sex: B6C3F1/MALE, 3000, 6000 PPM IN DIET FOR 102-104 WK (STUDY DURATION: 102-104 WK), 3000, 6000 PPM IN DIET FOR 102-104 WK (STUDY DURATION: 102-104 WK), Tumor Site: Type of Lesion: LIVER: CARCINOMA, CARCINOMA OR ADENOMA): active; positive
- carcinogen call (Species: MOUSE, Strain/Sex: B6C3F1/MALE, 3000, 6000 PPM IN DIET FOR 103 WK (STUDY DURATION: 104-105 WK), 3000, 6000 PPM IN DIET FOR 103 WK (STUDY DURATION: 104-105 WK), Tumor Site: Type of Lesion: LIVER: HEPATOCELLULAR CARCINOMA): active; positive
- carcinogen call (Species: RAT, Strain/Sex: F344/FEMALE, 6000, 12000 PPM IN DIET FOR 102-104 WK (STUDY DURATION: 102-104 WK), 6000, 12000 PPM IN DIET FOR 102-104 WK (STUDY DURATION: 102-104 WK), Tumor Site: Type of Lesion: LIVER: CARCINOMA, CARCINOMA OR ADENOMA): active; positive
- carcinogen call (Species: RAT, Strain/Sex: F344/FEMALE, 6000, 12000 PPM IN DIET FOR 103 WK (STUDY DURATION: 105 WK), 6000, 12000 PPM IN DIET FOR 103 WK (STUDY DURATION: 105 WK), Tumor Site: Type of Lesion: LIVER: HEPATOCELLULAR CARCINOMA, NEOPLASTIC NODULE): active; positive
- carcinogen call (Species: RAT, Strain/Sex: F344/MALE, 2% IN DIET FOR 78 WK (STUDY DURATION: 78 WK), Tumor Site: Type of Lesion: LIVER: NEOPLASM): active; positive
- carcinogen call (Species: RAT, Strain/Sex: F344/MALE, 2% IN DIET FOR 108 WK (STUDY DURATION: 108 WK), Tumor Site: Type of Lesion: LIVER: NEOPLASTIC NODULE OR HEPATOCELLULAR CARCINOMA): active; positive
- carcinogen call (Species: RAT, Strain/Sex: F344/MALE, 6000, 12000 PPM IN DIET FOR 102-104 WK (STUDY DURATION: 102-104 WK), 6000, 12000 PPM IN DIET FOR 102-104 WK (STUDY DURATION: 102-104 WK), Tumor Site: Type of Lesion: LIVER: CARCINOMA, CARCINOMA OR ADENOMA): active; positive
- carcinogen call (Species: RAT, Strain/Sex: F344/MALE, 6000, 12000 PPM IN DIET FOR 103 WK (STUDY DURATION: 104-105 WK), 6000, 12000 PPM IN DIET FOR 103 WK (STUDY DURATION: 104-105 WK), Tumor Site: Type of Lesion: LIVER: HEPATOCELLULAR CARCINOMA OR NEOPLASTIC NODULE): active; positive
- carcinogen call (Species: RAT, Strain/Sex: SPRAGUE-DAWLEY/MALE (31-167/GROUP), 30, 95, 300 MG/KG/D IN DIET UP TO 159 WK (STUDY DURATION: LIFE TIME), 30, 95, 300 MG/KG/D IN DIET UP TO 159 WK (STUDY DURATION: LIFE TIME), Tumor Site: Type of Lesion: TESTIS: LEYDIG CELL TUMORS): active; positive
- carcinogen call (Species: RAT, Strain/Sex: SPRAGUE-DAWLEY/MALE (31-167/GROUP), 30, 95, 300 MG/KG/D IN DIET UP TO 159 WK (STUDY DURATION: LIFETIME), 30, 95, 300 MG/KG/D IN DIET UP TO 159 WK (STUDY DURATION: LIFETIME), Tumor Site: Type of Lesion: LIVER: CHOLANGIOCELLULAR TUMORS, TESTIS: LEYDIG CELL TUMORS (SIGNIFICANT DOSE RELATED TREND, INCIDENCE COMPARED TO CONTR, Tumor Site: Type of Lesion: LIVER: CHOLANGIOCELLULAR TUMORS, TESTIS: LEYDIG CELL TUMORS (SIGNIFICANT DOSE RELATED TREND, INCIDENCE COMPARED TO CONTR): active; positive

SMILES: Oc1c(Cl)c(Cl)c(Cl)c(Cl)c1Cl
- carcinogen call (Species: MOUSE, Strain/Sex: B6C3F1/FEMALE, 100, 200, 600 PPM DOWCIDE EC-7 IN FEED FOR 103 WK (STUDY DURATION: 103 WK), 100, 200, 600 PPM DOWCIDE EC-7 IN FEED FOR 103 WK (STUDY DURATION: 103 WK), Tumor Site: Type of Lesion: ADRENAL GLAND/MEDULLA: PHEOCHROMOCYTOMA: ADRENAL GLAND/MEDULLA: PHEOCHROMOCYTOMA OR MALIGNANT PHEOCHROMOCYTOMA, CIRCULAT): active; positive
- carcinogen call (Species: MOUSE, Strain/Sex: B6C3F1/FEMALE, 100, 200 PPM TECHNICAL GRADE PENTACHLOROPHENOL IN FEED FOR 103 WK (STUDY DURATION: 103 WK), 100, 200 PPM TECHNICAL GRADE PENTACHLOROPHENOL IN FEED FOR 103 WK (STUDY DURATION: 103 WK), Tumor Site: Type of Lesion: LIVER: HEPATOCELLULAR ADENOMA OR CARCINOMA, CIRCULATORY SYSTEM: HEMANGIOSARCOMA): active; positive
- carcinogen call (Species: MOUSE, Strain/Sex: B6C3F1/MALE, 100, 200, 600 PPM DOWCIDE EC-7 IN FEED FOR 103 WK (STUDY DURATION: 103 WK), 100, 200, 600 PPM DOWCIDE EC-7 IN FEED FOR 103 WK (STUDY DURATION: 103 WK), Tumor Site: Type of Lesion: ADRENAL GLAND/MEDULLA: PHEOCHROMOCYTOMA, ADRENAL GLAND/MEDULLA: PHEOCHROMOCYTOMA OR MALIGNANT PHEOCHROMOCYTOMA, LIVER: H, Tumor Site: Type of Lesion: ADRENAL GLAND/MEDULLA: PHEOCHROMOCYTOMA, ADRENAL GLAND/MEDULLA: PHEOCHROMOCYTOMA OR MALIGNANT PHEOCHROMOCYTOMA, LIVER: H): active; positive
- carcinogen call (Species: MOUSE, Strain/Sex: B6C3F1/MALE, 100, 200 PPM TECHNICAL GRADE PENTACHLOROPHENOL IN FEED FOR 103 WK (STUDY DURATION: 103 WK), 100, 200 PPM TECHNICAL GRADE PENTACHLOROPHENOL IN FEED FOR 103 WK (STUDY DURATION: 103 WK), Tumor Site: Type of Lesion: ADRENAL GLAND/MEDULLA: PHEOCHROMOCYTOMA, LIVER: HEPATOCELLULAR ADENOMA, LIVER: HEPATOCELLULAR ADENOMA OR CARCINOMA, Tumor Site: Type of Lesion: ADRENAL GLAND/MEDULLA: PHEOCHROMOCYTOMA, LIVER: HEPATOCELLULAR ADENOMA, LIVER: HEPATOCELLULAR ADENOMA OR CARCINOMA): active; positive
- carcinogen call (Species: MOUSE, Strain/Sex: B6C3F1/MALE, 1200 PPM IN DIET FOR 13 WK (STUDY DURATION: 42 WK)): inactive; negative
- carcinogen call (Species: RAT, Strain/Sex: F344/N/FEMALE, 200, 400, 600 PPM IN DIET FOR 105 WK (STUDY DURATION: 105 WK), 200, 400, 600 PPM IN DIET FOR 105 WK (STUDY DURATION: 105 WK)): inactive; negative
- carcinogen call (Species: RAT, Strain/Sex: F344/N/FEMALE, 1000 PPM IN DIET FOR 52 WK (STUDY DURATION: 105 WK)): inactive; negative
- carcinogen call (Species: RAT, Strain/Sex: F344/N/MALE, 200, 400, 600 PPM IN DIET FOR 105 WK (STUDY DURATION: 105 WK), 200, 400, 600 PPM IN DIET FOR 105 WK (STUDY DURATION: 105 WK)): inactive; negative
- carcinogen call (Species: RAT, Strain/Sex: F344/N/MALE, 1000 PPM IN DIET FOR 52 WK (STUDY DURATION: 105 WK), Tumor Site: Type of Lesion: SKIN: KERATOACANTHOMA): active; positive
